Experimental data as given in publication PMC7861561 (Current Research in Structural Biology, 2020).
Ends that are not written are not given here.

Target: T1, BRPF1 bromodomain (Homo sapiens, UniProt P55201)
T1 sequence (P55201 629-742): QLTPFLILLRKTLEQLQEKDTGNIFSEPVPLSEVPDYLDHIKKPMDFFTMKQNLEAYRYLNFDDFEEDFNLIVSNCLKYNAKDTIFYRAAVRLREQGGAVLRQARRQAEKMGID
Assay: biochemical
Format: binding
Conditions: SD

Substance: LGKGGAK(Ac)RHRK [H4K16ac (10–20)]
- Kd: 518 ± 92.1 µM
